{"source": "ChEMBL document CHEMBL1139684", "about": "“Potent benzimidazolone based human beta(3)-adrenergic receptor agonists” (Bioorg Med Chem Lett, 2006)", "key": {"[1]": {"target": "T1, Beta-3 adrenergic receptor (Homo sapiens, UniProt P13945)", "experiment": "Agonist activity at human beta-3 adrenergic receptor expressed in CHO cells assessed as cAMP levels at 100 nM relative to isoproterenol", "type": "functional, cell-based"}, "[2]": {"target": "Beta-3 adrenergic receptor (Rattus norvegicus, UniProt P26255)", "sequence (P26255 whole entry)": "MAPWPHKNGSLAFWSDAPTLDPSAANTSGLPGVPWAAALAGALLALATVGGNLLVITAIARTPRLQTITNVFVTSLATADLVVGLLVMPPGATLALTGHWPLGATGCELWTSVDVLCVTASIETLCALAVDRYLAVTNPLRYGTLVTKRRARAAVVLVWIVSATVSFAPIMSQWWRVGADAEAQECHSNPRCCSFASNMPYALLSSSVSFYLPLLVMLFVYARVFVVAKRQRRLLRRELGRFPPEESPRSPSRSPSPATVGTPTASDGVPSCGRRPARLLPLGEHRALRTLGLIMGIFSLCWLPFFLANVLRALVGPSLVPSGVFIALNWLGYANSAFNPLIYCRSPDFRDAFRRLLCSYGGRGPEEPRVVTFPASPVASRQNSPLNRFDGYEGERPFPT", "experiment": "Agonist activity at rat beta-3 adrenergic receptor expressed in CHO cells assessed as cAMP levels", "type": "functional, cell-based"}, "[3]": {"target": "T1, Beta-3 adrenergic receptor", "experiment": "Agonist activity at human beta3 adrenergic receptor expressed in CHO cells assessed as cAMP levels", "type": "functional, cell-based"}, "[4]": {"target": "Beta-3 adrenergic receptor (Rattus norvegicus) (UniProt P26255)", "sequence (P26255 whole entry)": "as above", "experiment": "Agonist activity at rat beta-3 adrenergic receptor expressed in CHO cells assessed as cAMP levels relative to isoproterenol", "type": "functional, cell-based", "conditions": "filed as agonist"}, "[5]": {"target": "Beta-1 adrenergic receptor (Homo sapiens, UniProt P08588)", "sequence (P08588 whole entry)": "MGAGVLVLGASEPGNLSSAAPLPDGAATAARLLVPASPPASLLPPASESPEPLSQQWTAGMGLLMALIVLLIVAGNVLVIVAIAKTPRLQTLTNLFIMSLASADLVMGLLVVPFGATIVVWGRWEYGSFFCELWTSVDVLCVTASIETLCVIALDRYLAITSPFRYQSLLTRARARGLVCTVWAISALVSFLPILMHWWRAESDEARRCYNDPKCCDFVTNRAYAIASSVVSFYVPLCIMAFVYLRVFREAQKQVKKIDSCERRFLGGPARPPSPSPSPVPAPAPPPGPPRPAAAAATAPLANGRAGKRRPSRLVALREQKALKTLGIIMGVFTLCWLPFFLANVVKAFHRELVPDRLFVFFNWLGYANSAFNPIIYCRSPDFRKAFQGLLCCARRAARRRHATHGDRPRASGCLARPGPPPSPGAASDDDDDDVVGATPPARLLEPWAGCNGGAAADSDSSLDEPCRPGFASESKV", "experiment": "Agonist activity at human beta-1 adrenergic receptor expressed in CHO cells assessed as cAMP levels", "type": "functional, cell-based"}, "[6]": {"target": "Beta-2 adrenergic receptor (Homo sapiens, UniProt P07550)", "sequence (P07550 whole entry)": "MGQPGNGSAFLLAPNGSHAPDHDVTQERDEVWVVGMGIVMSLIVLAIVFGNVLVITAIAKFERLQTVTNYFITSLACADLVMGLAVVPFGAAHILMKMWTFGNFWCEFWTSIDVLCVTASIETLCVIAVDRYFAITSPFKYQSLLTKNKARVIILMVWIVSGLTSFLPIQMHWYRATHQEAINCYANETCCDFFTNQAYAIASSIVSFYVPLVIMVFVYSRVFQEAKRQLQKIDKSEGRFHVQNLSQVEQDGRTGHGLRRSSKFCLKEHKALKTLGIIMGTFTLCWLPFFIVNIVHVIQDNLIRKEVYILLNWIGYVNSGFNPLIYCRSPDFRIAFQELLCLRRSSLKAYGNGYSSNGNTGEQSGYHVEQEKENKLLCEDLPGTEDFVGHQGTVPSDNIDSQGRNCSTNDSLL", "experiment": "Agonist activity at human beta-2 adrenergic receptor expressed in CHO cells assessed as cAMP levels", "type": "functional, cell-based"}, "[7]": {"target": "T1, Beta-3 adrenergic receptor", "experiment": "Agonist activity at human beta-3 adrenergic receptor expressed in CHO cells assessed as cAMP levels relative to isoproterenol", "type": "functional, cell-based", "conditions": "filed as agonist"}, "Rattus norvegicus [8]": {"species": "Rattus norvegicus", "experiment": "Increase in heart rate in rat at 0.01 mM", "type": "functional"}, "[9]": {"experiment": "AUC (0-6h) in DIO Long-Evans rat at 10 mg/kg, po", "type": "ADME, organism-based", "set-up": "time < 6 hr, dose 10 mg/kg, route oral", "conditions": "plasma"}, "Rattus norvegicus [10]": {"test_system": "Rattus norvegicus", "experiment": "Increase in energy expenditure in DIO Long-Evans rat at 10 mg/kg, po after 20 hrs relative to control", "type": "functional"}, "Rattus norvegicus [11]": {"test_system": "Rattus norvegicus", "experiment": "Reduction in respiratory quotient in DIO Long-Evans rat at 10 mg/kg, po after 20 hrs relative to control", "type": "functional", "set-up": "scale not given: the % may be the effect or the level left"}}, "data": [{"smiles": "CC(Cc1ccc(Oc2ccc(C(=O)O)cc2)cc1)NC[C@H](O)COc1cccc2[nH]c(=O)[nH]c12", "note": "(stereo not given in full)", "values": [{"measurement": "Activity", "setting": "[1]; filed as agonist", "value": 99, "unit": "%"}]}, {"smiles": "CC(Cc1ccc(Oc2ccc(C(N)=O)cn2)cc1)NC[C@H](O)COc1cccc2c1[nH]c(=O)n2C", "note": "(stereo not given in full)", "values": [{"measurement": "Activity", "setting": "[1]", "value": 33, "unit": "%"}]}, {"smiles": "CC(Cc1ccc(Oc2ccc(C#N)cn2)cc1)NC[C@H](O)COc1cccc2[nH]c(=O)n(C)c12", "note": "(stereo not given in full)", "values": [{"measurement": "Activity", "setting": "[1]; filed as agonist", "value": 83, "unit": "%"}]}, {"smiles": "CC(Cc1ccc(Oc2ccc(C(N)=O)cn2)cc1)NC[C@H](O)COc1cccc2[nH]c(=O)n(C)c12", "note": "(stereo not given in full)", "values": [{"measurement": "Activity", "setting": "[1]; filed as agonist", "value": 87, "unit": "%"}]}, {"smiles": "CC(Cc1ccc(Oc2ccc(C(=O)O)cc2)cc1)NC[C@H](O)COc1cccc2c1n(C)c(=O)n2C", "note": "(stereo not given in full)", "values": [{"measurement": "Activity", "setting": "[1]", "value": 28, "unit": "%"}]}, {"smiles": "CC(Cc1ccc(Oc2ccc(C(N)=O)cn2)cc1)NC[C@H](O)COc1cccc2c1n(C)c(=O)n2C", "note": "(stereo not given in full)", "values": [{"measurement": "Activity", "setting": "[1]", "value": 25, "unit": "%"}]}, {"smiles": "CC(Cc1ccc(Oc2ccc(C(=O)O)cc2)cc1)NC[C@H](O)COc1cccc2[nH]c(=O)n(C)c12", "note": "(stereo not given in full)", "values": [{"measurement": "Activity", "setting": "[1]; filed as agonist", "value": 84, "unit": "%"}]}, {"smiles": "CC(Cc1ccc(Oc2ccc(C#N)cn2)cc1)NC[C@H](O)COc1cccc2c1[nH]c(=O)n2C", "note": "(stereo not given in full)", "values": [{"measurement": "Activity", "setting": "[1]", "value": 29, "unit": "%"}]}, {"smiles": "CC(Cc1ccc(Oc2ccc(C#N)cn2)cc1)NC[C@H](O)COc1cccc2[nH]c(=O)[nH]c12", "note": "(stereo not given in full)", "values": [{"measurement": "Activity", "setting": "[1]; filed as agonist", "value": 88, "unit": "%"}]}, {"smiles": "CC(Cc1ccc(Oc2ccc(C#N)cn2)cc1)NC[C@H](O)COc1cccc2c1n(C)c(=O)n2C", "note": "(stereo not given in full)", "values": [{"measurement": "Activity", "setting": "[1]", "value": 11, "unit": "%"}]}, {"smiles": "CC(C)(Cc1ccc(Oc2ccc(C(N)=O)cn2)cc1)NC[C@H](O)COc1cccc2[nH]c(=O)n(CCC3CC3)c12", "values": [{"measurement": "EC50", "setting": "[2]", "value": "0.0068 µM (agonist)"}, {"measurement": "EC50", "setting": "[3]", "value": "0.0054 µM (agonist)"}, {"measurement": "Emax", "setting": "[4]", "value": 42.7, "unit": "%"}, {"measurement": "EC50", "setting": "[5]", "value": "> 10", "unit": "µM"}, {"measurement": "EC50", "setting": "[6]", "value": "> 10", "unit": "µM"}, {"measurement": "Emax", "setting": "[7]", "value": 67.9, "unit": "%"}, {"measurement": "Activity", "setting": "Rattus norvegicus [8]", "value": 8.9, "unit": "%"}]}, {"smiles": "CC(C)(Cc1ccc(Oc2ccc(C(N)=O)cn2)cc1)NC[C@H](O)COc1cccc2[nH]c(=O)n(CCC3CCC3)c12", "values": [{"measurement": "EC50", "setting": "[2]", "value": "0.0287 µM (agonist)"}, {"measurement": "EC50", "setting": "[3]", "value": "0.0101 µM (agonist)"}, {"measurement": "Emax", "setting": "[4]", "value": 49.6, "unit": "%"}, {"measurement": "AUC(0-t) at 6 h", "setting": "[9]", "value": 112, "unit": "ng·h/mL"}, {"measurement": "EC50", "setting": "[5]", "value": "> 10", "unit": "µM"}, {"measurement": "EC50", "setting": "[6]", "value": "> 10", "unit": "µM"}, {"measurement": "Activity", "setting": "Rattus norvegicus [10]", "value": 18, "unit": "%"}, {"measurement": "Activity", "setting": "Rattus norvegicus [11]", "value": 29, "unit": "%"}, {"measurement": "Emax", "setting": "[7]", "value": 58.2, "unit": "%"}, {"measurement": "Activity", "setting": "Rattus norvegicus [8]", "value": 6.5, "unit": "%"}]}, {"smiles": "CC(C)(Cc1ccc(Oc2ccc(C(N)=O)cn2)cc1)NC[C@H](O)COc1cccc2[nH]c(=O)n(CCC3CCCC3)c12", "values": [{"measurement": "EC50", "setting": "[3]", "value": "0.0117 µM (agonist)"}, {"measurement": "EC50", "setting": "[5]", "value": "> 10", "unit": "µM"}, {"measurement": "Emax", "setting": "[7]", "value": 63.7, "unit": "%"}, {"measurement": "Activity", "setting": "Rattus norvegicus [8]", "value": 9.9, "unit": "%"}]}, {"smiles": "CC(Cc1ccc(Oc2ccc(C(=O)O)cc2)cc1)NC[C@H](O)COc1cccc2c1[nH]c(=O)n2C", "note": "(stereo not given in full)", "values": [{"measurement": "Activity", "setting": "[1]", "value": 30, "unit": "%"}]}, {"smiles": "CC(Cc1ccc(Oc2ccc(C(N)=O)cn2)cc1)NC[C@H](O)COc1cccc2[nH]c(=O)[nH]c12", "note": "(stereo not given in full)", "values": [{"measurement": "Activity", "setting": "[1]; filed as agonist", "value": 97, "unit": "%"}]}, {"smiles": "CCCn1c(=O)[nH]c2cccc(OC[C@@H](O)CNC(C)(C)Cc3ccc(Oc4ccc(C(N)=O)cn4)cc3)c21", "values": [{"measurement": "EC50", "setting": "[3]", "value": "0.0052 µM (agonist)"}, {"measurement": "EC50", "setting": "[5]", "value": "> 10", "unit": "µM"}, {"measurement": "EC50", "setting": "[6]", "value": "> 10", "unit": "µM"}, {"measurement": "Emax", "setting": "[7]", "value": 73.9, "unit": "%"}, {"measurement": "Activity", "setting": "Rattus norvegicus [8]", "value": 19.9, "unit": "%"}]}, {"smiles": "CCn1c(=O)[nH]c2cccc(OC[C@@H](O)CNC(C)(C)Cc3ccc(Oc4ccc(C(N)=O)cn4)cc3)c21", "values": [{"measurement": "EC50", "setting": "[3]", "value": "0.0052 µM (agonist)"}, {"measurement": "EC50", "setting": "[5]", "value": "> 10", "unit": "µM"}, {"measurement": "EC50", "setting": "[6]", "value": "> 10", "unit": "µM"}, {"measurement": "Emax", "setting": "[7]", "value": 65.1, "unit": "%"}, {"measurement": "Activity", "setting": "Rattus norvegicus [8]", "value": 20.8, "unit": "%"}]}, {"smiles": "Cn1c(=O)[nH]c2cccc(OC[C@@H](O)CNC(C)(C)Cc3ccc(Oc4ccc(C(N)=O)cn4)cc3)c21", "values": [{"measurement": "EC50", "setting": "[2]", "value": "0.0245 µM (agonist)"}, {"measurement": "EC50", "setting": "[3]", "value": "0.0071 µM (agonist)"}, {"measurement": "Emax", "setting": "[4]", "value": 59.6, "unit": "%"}, {"measurement": "EC50", "setting": "[5]", "value": "0.0087 µM (agonist)"}, {"measurement": "EC50", "setting": "[6]", "value": "> 10", "unit": "µM"}, {"measurement": "Emax", "setting": "[7]", "value": 79.7, "unit": "%"}, {"measurement": "Activity", "setting": "Rattus norvegicus [8]", "value": 17.7, "unit": "%"}]}]}
